# Activity calls are given as the source filed them. No cut-off for these calls is given here.
# Tests used:
# Hepatitis B virus [1] = experiment: Antiviral activity against HBV infected human HepAD38 cells assessed as inhibition of 3.5 kb RNA at 10 uM in absence of tet followed by treating with compound after 24 hrs measured after 4 days by northern blot analysis; type: functional, organism-based; conditions: time 4.0 day
# Hepatitis B virus [2] = experiment: Antiviral activity against HBV infected human HepAD38 cells assessed as reduction in HBV RNA levels preincubated with compound for 4 days measured after 4 days by RT-PCR analysis; type: functional, organism-based
# Hepatitis B virus [3] = experiment: Antiviral activity against HBV infected in doxycycline-induced human HepG2-NTCP cells assessed as reduction in HBsAg secretion in supernatant measured from day 2 to 8 post treatment by time resolved fluoroimmunoassay; type: functional, organism-based; conditions: dose microM 2.5-10, time day 2-8
# Hepatitis B virus [4] = experiment: Antiviral activity against HBV infected human HepAD38 cells assessed as inhibition of precRNA at 10 uM in absence of tet followed by treating with compound after 24 hrs measured after 4 days by RT-qPCR analysis; type: functional, organism-based; conditions: time 4.0 day
# Hepatitis B virus [5] = experiment: Antiviral activity against HBV infected human HepAD38 cells assessed as reduction in HBeAg secretion preincubated with compound for 4 days measured after 4 days by […] analysis; type: functional, organism-based
# Hepatitis B virus [6] = experiment: Antiviral activity against HBV infected in human HuH7 cells transfected with luciferase reporter plasmid assessed as repression of HBV basal core promoter at 0.25 to 10 uM incubated for 48 hrs by luciferase assay; type: functional, organism-based; conditions: Huh-7, dose microM 0.25-10, time 48.0 hrs
# Hepatitis B virus [7] = experiment: Antiviral activity against HBV infected human HepAD38 cells assessed as decrease in HBV core proteins measured after 4 days by western blot analysis; type: functional, organism-based; conditions: dose microM 1.25-10, time 4.0 day
# Hepatitis B virus [8] = experiment: Antiviral activity against HBV infected in human HuH7 cells transfected with luciferase reporter plasmid assessed as repression of HBV enhancer I at 0.25 to 10 uM incubated for 48 hrs by luciferase assay; type: functional, organism-based; conditions: Huh-7, dose microM 0.25-10, time 48.0 hrs
# Hepatitis B virus [9] = experiment: Antiviral activity against HBV infected human HepAD38 cells assessed as decrease in reverse-transcripted rcDNA treated with tet and LAM followed by addition of compound by southern blot analysis; type: functional, organism-based; conditions: dose microM 1.25-10, time 4.0 day
# Hepatitis B virus [10] = experiment: Antiviral activity against HBV infected in human HepAD38 cells assessed as inhibition of viral DNA at 10 uM incubated for 4 days by SYBR green dye based RT-PCR analysis relative to control; type: functional; conditions: HePAD38, 96 h, time 4 day
# Hepatitis B virus [11] = experiment: Antiviral activity against HBV infected human HepAD38 cells assessed as reduction in HBV DNA levels preincubated with compound for 4 days measured after 4 days by RT-PCR analysis; type: functional, organism-based
# Hepatitis B virus [12] = experiment: Antiviral activity against HBV infected human HepAD38 cells assessed as inhibition of pgRNA at 10 uM in absence of tet followed by treating with compound after 24 hrs measured after 4 days by RT-qPCR analysis; type: functional, organism-based; conditions: time 4.0 day
# Hepatitis B virus [13] = experiment: Antiviral activity against HBV infected in human HuH7 cells assessed as reduction in the expression of viral mRNA at 10 uM incubated for 4 days by FPKM analysis; type: functional, organism-based; conditions: Huh-7, time 4.0 day
# Hepatitis B virus [14] = experiment: Antiviral activity against HBV infected human HepAD38 cells assessed as decrease in DP-rcDNA levels pretreated with tet for 2 days measured after 8 days post treatment with compound by southern blot analysis; type: functional, organism-based; conditions: time 10.0 day
# Hepatitis B virus [15] = experiment: Antiviral activity against HBV infected human HepAD38 cells assessed as HBV cccDNA degradation in presence of tet and LAM at 10 uM obtained up to 8 days post treatment by rolling cycle amplification; type: functional, organism-based; conditions: time day <=8
# Hepatitis B virus [16] = experiment: Antiviral activity against HBV infected in human HepAD38 cells assessed as inhibition of viral DNA incubated for 4 days by SYBR green dye based RT-PCR analysis; type: functional, organism-based; conditions: HePAD38, 96 h
# Hepatitis B virus [17] = experiment: Antiviral activity against HBV infected human HepAD38 cells assessed as degradation of HBV RNA; type: functional, organism-based
# [18] = Downregulation of ZBED6 in HBV infected human HepAD38 cells assessed as inhibition rate at 10 uM in absence of tet incubated with compound for 4 days followed by RNA extraction with trizol reagent measured by qRT-PCR analysis relative to control; type: functional; conditions: Hepatitis B virus, HePAD38, 96 h, time 4 day
# Hepatitis B virus [19] = experiment: Antiviral activity against HBV infected human HepAD38 cells assessed as decrease in HBV cccDNA levels pretreated with tet for 2 days measured after 8 days post treatment with compound by southern blot analysis; type: functional, organism-based; conditions: time 10.0 day
# Hepatitis B virus [20] = experiment: Antiviral activity against HBV infected in doxycycline-induced human HepG2-NTCP cells assessed as reduction in HBeAg secretion in supernatant measured from day 2 to 8 post treatment by time resolved fluoroimmunoassay; type: functional, organism-based; conditions: dose microM 2.5-10, time day 2-8
# Hepatitis B virus [21] = experiment: Antiviral activity against HBV infected human HepAD38 cells assessed as inhibition of total HBV RNA at 10 uM in absence of tet followed by treating with compound after 24 hrs measured after 4 days by RT-qPCR analysis; type: functional, organism-based; conditions: time 4.0 day
# Hepatitis B virus [22] = experiment: Antiviral activity against HBV infected human HepAD38 cells assessed as reduction in HBV cccDNA levels pretreated with tet for 2 days measured after 8 days post treatment with compound by rolling-cycle amplification; type: functional, organism-based; conditions: time 10.0 day
# [23] = Cytotoxicity against human HepG2 cells assessed as cell viability incubated for 72 hrs by MTT assay; type: cell-based
# Hepatitis B virus [24] = experiment: Antiviral activity against HBV infected human HepAD38 cells assessed as decrease in reverse-transcripted ssDNA treated with tet and LAM followed by addition of compound by southern blot analysis; type: functional, organism-based; conditions: dose microM 1.25-10, time 4.0 day
# [25] = Downregulation of ZBTB7B in HBV infected human HepAD38 cells assessed as inhibitory rate at 10 uM in absence of tet incubated with compound for 4 days followed by RNA extraction with trizol reagent and measured by qRT-PCR analysis relative to control; type: functional; conditions: Hepatitis B virus, HePAD38, 96 h, time 4 day
# [26] = Cytotoxicity against human HePAD38 cells assessed as cell viability incubated for 72 hrs by MTT assay; type: cell-based
structure (smiles),measurement,setting,value
C=C1CC[C@H](OC(C)=O)[C@]2(C)[C@@H](OC(C)=O)/C=C/C(=C)[C@H](Cl)[C@@H]3OC(=O)[C@H](C)[C@@]3(O)[C@@H](OC(C)=O)[C@@H]12,inhibition,Hepatitis B virus [1],Active
same,EC50,Hepatitis B virus [2],2.87 µM
same,Activity,Hepatitis B virus [3],Dose-dependent effect
same,inhibition,Hepatitis B virus [4],Active
same,EC50,Hepatitis B virus [5],7.75 µM
same,Activity,Hepatitis B virus [6],Active
same,Activity,Hepatitis B virus [7],Dose-dependent effect
same,Activity,Hepatitis B virus [8],Active
same,Activity,Hepatitis B virus [9],Dose-dependent effect
same,inhibition at 10 µM,Hepatitis B virus [10],64%
same,EC50,Hepatitis B virus [11],0.83 µM
same,inhibition,Hepatitis B virus [12],Active
same,Activity,Hepatitis B virus [13],Active
same,Activity,Hepatitis B virus [14],Active
same,Activity,Hepatitis B virus [15],inactive
same,EC50,Hepatitis B virus [16],0.83 µM
same,Activity,Hepatitis B virus [17],inactive
same,inhibition at 10 µM,[18],28%
same,Activity,Hepatitis B virus [19],Active
same,Activity,Hepatitis B virus [20],Dose-dependent effect
same,inhibition,Hepatitis B virus [21],Active
same,Activity,Hepatitis B virus [22],Active
same,CC50 at 72 h,[23],> 100 µM
same,Activity,Hepatitis B virus [24],Dose-dependent effect
same,inhibition at 10 µM,[25],32%
same,CC50 at 72 h,[26],> 100 µM
C=C1/C=C/[C@H](OC(C)=O)[C@@]2(C)[C@@H](OC(C)=O)CC[C@]3(CO3)[C@@H]2[C@H](OC(C)=O)[C@]2(O)[C@@H](C)C(=O)O[C@H]2[C@H]1Cl [JUNCEELLOLIDE C],inhibition at 10 µM,Hepatitis B virus [10],63%
same,EC50,Hepatitis B virus [16],5.19 µM
same,CC50 at 72 h,[23],> 100 µM
same,CC50 at 72 h,[26],> 100 µM
C=C1/C=C/[C@H](OC(=O)CC)[C@@]2(C)[C@@H](OC(C)=O)CC[C@]3(CO3)[C@@H]2[C@H](OC(C)=O)[C@]2(O)[C@@H](C)C(=O)O[C@H]2[C@H]1Cl,inhibition at 10 µM,Hepatitis B virus [10],75%
same,EC50,Hepatitis B virus [16],0.81 µM
same,CC50 at 72 h,[23],> 100 µM
same,CC50 at 72 h,[26],> 100 µM
CC(=O)OC/C1=C/[C@@H]2OC(=O)[C@H](C)[C@@]2(O)[C@@H](OC(C)=O)[C@H]2[C@]3(CC[C@H](OC(C)=O)[C@]2(C)[C@@H](OC(C)=O)C[C@H]1OC(C)=O)CO3,inhibition at 10 µM,Hepatitis B virus [10],0%
same,CC50 at 72 h,[23],> 100 µM
same,CC50 at 72 h,[26],> 100 µM
CC(=O)O[C@H]1CC[C@]2(CO2)[C@@H]2[C@H](OC(C)=O)[C@@]3(O)[C@H](/C=C(CCl)\C=C/[C@H](OC(=O)COC(=O)CC(C)C)[C@@]12C)OC(=O)[C@@H]3C,inhibition at 10 µM,Hepatitis B virus [10],0%
same,CC50 at 72 h,[23],> 100 µM
same,CC50 at 72 h,[26],> 100 µM
CC(=O)OCC(=O)O[C@H]1/C=C\C(COC(C)=O)=C/[C@@H]2OC(=O)[C@H](C)[C@@]2(O)[C@@H](OC(C)=O)[C@H]2[C@]3(CC[C@H](OC(C)=O)[C@]12C)CO3,inhibition at 10 µM,Hepatitis B virus [10],0%
same,CC50 at 72 h,[23],> 100 µM
same,CC50 at 72 h,[26],> 100 µM
CC(=O)OCC(=O)O[C@H]1/C=C\C(CCl)=C/[C@@H]2OC(=O)[C@H](C)[C@@]2(O)[C@@H](OC(C)=O)[C@H]2[C@@](O)(CCl)CC[C@H](OC(C)=O)[C@]12C,inhibition at 10 µM,Hepatitis B virus [10],58%
same,CC50 at 72 h,[23],> 100 µM
same,CC50 at 72 h,[26],> 100 µM
